Test system: albino mouse ear vasculature
Experiment: Phototoxicity to normal skin vasculature, Evans blue assay in albino mouse ear
Parameters: species or system Swiss-Webster mice
Settings: in vivo; for M.E.D. (minimum effective dose to damage ear vasculature): 1440 min
Text: The major side effect of hematoporphyrin derivative preparations in tumor phototherapy is the extended phototoxicity to normal skin (by way of the exposed skin vasculature) for a month or longer after injection of therapeutic doses.
The Evans blue assay method assumes that the primary site of photodamage is the vascular system and uses Evans blue (colloidal dye) extravasation through damaged vascular wall into surrounding tissues to measure the relative phototoxicity as the minimum effective dose (M.E.D.) of photosensitizer necessary to cause a statistically significant increase in tissue Evans blue content. The higher the dose of photosensitizer required the lower the phototoxicity. […] This is possibly due in site aggregation and inhibition of the photosensitized reaction.

Substance | Relative phototoxicity at higher doses | Evans Blue Increase | M.E.D. (minimum effective dose to damage ear vasculature)
Photofrin | relative phototoxicity is decreased at higher doses | – | –
tetraphenyl porphyrin sulfonate [TPPS] | – | 84% | 2.5 mg/kg
zinc phthalocyanine sulfonate [ZPS] | – | 30% | 22 mg/kg
